Values quoted from earlier work in patent publication US20060115424A1, “Combination therapy of oxaliplatin and radioactively doped particles treating cancer” (priority 2003, published 2006).

Test system: cancer
Conditions: Gray et al (2001) Annals of Oncology 12: 1711-1720

O=c1[nH]c(=O)n([C@H]2C[C@H](O)[C@@H](CO)O2)cc1F [floxuridine]
response rate: 17.6%
time to disease progression: 9.7 months
